Data on two molecules can be found in US20070027175A1, “Antineoplastic activities of ellipticine and its derivatives” (priority 2005, published 2007).

The test system of series [1] is U266 cells. Put plainly: Flow cytometry apoptosis (Annexin V-FITC/7-AAD). Type of series: cell-based, human. As to conditions: 12 hours, EPED3 2 μM, Velcade 0.5 μM. On the procedure: (§1) FIGS. 14A-14L show flowcytometry analyses of cell viability and cell cycle arrest under EPED3 and Velcade treatments. U266 cells were co-cultured without contact with human fetal bone mesenchymal cells. Cells were untreated (Control; FIGS. 14A, 14D, 14G, 14J) or exposed to […] (FIGS. 14B, 14E, 14H, 14K) or […] (FIGS. 14C, 14F, 14I, 14L) for 12 hours and then harvested. Pan-caspase inhibitor Z-VAD-FMK ([…]) was also added to co-cultures (FIGS. 14D-14F and FIGS. 14J-14L) to block caspase-dependent apoptosis and then analyzed for cell cycling arrest. Percent cells in G0+G1 and G2+M phases were measured by the peaks of DNA helix and are gated with each graph (FIGS. 14A-14F). Percent cells with fragmented DNA are indicated as c % in each graph. Cells were also analyzed for apoptotic status (FIGS. 14G-14L) using Coulter Annexin-V FITC/7-AAD kit. Untreated cells (Control; FIGS. 14G and 14J) were maintained at high viability (90%). Early apoptotic cells were gated at G4, and necrotic cells were gated at G2; percent cells in each population are indicated with each graph. The arrows indicate percent viable cells ingested EPED3, whose fluorescent property was captured at channel FL4 (FIGS. 14H, 14K).
Apoptosis was detected using the Annexin V-fluorescein isothiocyanate (FITC)/7-AAD kit (Beckman Coulter, Inc.). Myeloma cells were harvested from co-culture inserts and washed in PBS; 5×10^5 cells were incubated on ice with 100 μl of binding buffer (10 μl Annexin V-FITC and 20 μl of 7-AAD) for 15 minutes. Samples were analyzed using EPICS XL-MCL flowcytometer equipped with EXPO32 ADC software (Beckman Coulter, Inc.).
(§2) To investigate the effects of EPED3 on apoptosis and cell cycle arrest of myeloma cells, U266 cells were exposed to EPED3 (2 μM) or Velcade (0.5 μM) in co-culture without direct contact with fetal human bone mesenchymal cells. Twelve hours after treatment, cells were harvested for using flow cytometry to detect ongoing apoptosis and cell cycle arrest.
On the technique in general: In flow cytometry, cells or beads pass a laser one at a time.

The subject of series [2] is U266 cells. Nature of the series: Flow cytometry cell cycle arrest (DNA-Prep). The class given is cell-based, human. As to conditions: 12 hours; EPED3 2 μM, Velcade 0.5 μM. On the procedure: as §1
Cell cycle arrest was measured using DNA-Prep Coulter Reagents kit (Beckman Coulter, Inc., Miami, Fla.). Myeloma cells were harvested from co-culture inserts and washed in phosphate buffered saline (PBS); 5×10^5 cells were stained according to the manufacturer's instructions. Samples were analyzed using EPICS XL-MCL flowcytometer equipped with EXPO32 ADC software (Beckman Coulter, Inc.).
as §2
The cell cycle arrest analysis was simultaneously performed to examine DNA helix in U266 cells at 12 hours. […] Furthermore, 7.2% of the EPED3-treated population was in G2+M phase as opposed to 25.4% of the control and 18.9% of Velcade-treated populations in the G2+M phase (FIG. 14A-14C).

Series [3] has as its system U266 cells. The class given is cell-based, human. As to conditions: for disruption of mitochondria (MitoTracker Red CMXRos): 6 hours, EPED3 2 mM, Velcade 0.5 mM. The source says: FIGS. 15A-15C show fluorescent images of EPED3 endoplasmic distribution and induction of apoptosis, which was also detected by Western Blot. […] For analysis by fluorescence microscopy, nuclei were stained with DAPI (blue), mitochondria with MitoTracker Red CMXRos (red), and cytochrome c with FITC-conjugated secondary antibodies (green); EPED3 is excited by ultraviolet light (wavelength<500 nm) and was visualized as gold.
The appearance of large cytoplasmic vacuoles (arrows) and diminished mitochondria in cells treated with EPED3 indicate ongoing apoptosis. […] Cytochrome c disassociation with mitochondria also indicates initiation of the intrinsic apoptotic pathway. […] Protein extracts ([…]) were analyzed by Western blotting, using goat anti-human Caspase-3, -8, and -9 polyclonal antibodies. […] In contrast, both EPED3 and Velcade treatments initiated the intrinsic pathway, which releases cytochrome c to induce rapid cleavage of Caspase-9 into its activated form. The consequent Caspase-3 activation indicates activity of the intracellular proteolytic cascade. Abbreviations: C=Medium control, E=EPED3, V=Velcade.
Myeloma cells were co-cultured with human fetal bone mesenchymal cells in the TC inserts. The cells were treated with individual antimyeloma agents at desired concentrations. An aliquot containing 10^6 cells was transferred to 24-well plate and mixed with MitoTracker Red CMXRos (Invitrogen) at 50 nM final concentration. After a 15-minute incubation, cells were collected and washed with PBS and resuspended at 5×10^5 cells/ml for slide adhesion by the Cytospinning method. […]
Autofluorescence of EPED3 was used to visually examine its effects on myeloma cells. […] Cells that ingested EPED3 were, therefore, discernible by the characteristic golden light emitted under fluorescence microscopy. […]
To further investigate effects of EPED3 on mitochondrial integrity and cytochrome c, treated U266 cells were immunohistochemically analyzed.

For series [4], the system named is myeloma cell lines chronically exposed to Velcade. Nature of the series: Myeloma cell lines with acquired Velcade tolerance. The class given is cell-based.
Where [5] appears, read: co-culture without direct contact.
The mark [6] stands for this setting: with pan-caspase inhibitor Z-VAD-FMK.

As for `CC(C)C[C@H](NC(=O)[C@H](Cc1ccccc1)NC(=O)c1cnccn1)B(O)O` [Velcade, bortezomib, reference compound], in series [1] (setting [5]), the apoptotic cells came to 20.6% and the necrotic cells is 31.3%. In series [1] (setting [6]), this molecule registered an apoptotic cells of 25% and a necrotic cells of 2.8%. Besides, in series [2], the “population in G0+G1 phase” value was 59.8% and the “population in G2+M phase” value stood at 18.9%. In series [3], the “disruption of mitochondria (MitoTracker Red CMXRos)” value is “mitochondrial disruption was not seen”. In addition, the “tolerance level after chronic exposure” value in series [4] (in vitro chronic exposure to Velcade, several myeloma cell lines) was above 5 nM.
In series [1] (setting [5]), `Cc1c2ccncc2c(C)c2c1[nH]c1ccc(OCCN(C)C)cc12` [NSC 338258, ellipticine, 9-dimethyl amino-ethoxy-] had an apoptotic cells of 36% and a necrotic cells of 9.7%. In series [1] (setting [6]), the apoptotic cells stood at 8.9% and the necrotic cells came out at 18.9%. In addition, in series [2], the “population in G0+G1 phase” value was 67.5% and the “population in G2+M phase” value was determined as 7.2%. For the same molecule, in series [3], the “cell uptake and distribution (autofluorescence)” value is “instantly permeated the cells and distributed throughout the cytosol”; the “disruption of mitochondria (MitoTracker Red CMXRos)” value is “Disruption of mitochondria”. In addition, the “cross-tolerance of Velcade-tolerant cells” value in series [4] (data not shown) is recorded as “such Velcade-tolerance did not apply”.
